Each compound was assayed against CRBN truncate (318-426) (Homo sapiens (Human), UniProt Q96SW2) (assay: Measurement of molecular interactions using surface plasmon resonance (SPR), Biacore T200). Conditions: 25° C., immobilized CRBN truncate, upper limit of measurement 200 μM.
Format: binding
How it was run: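 C-terminally Avi-tagged CRBN (318-426) captured on a streptavidin SA chip on a Biacore T200. Running buffer 10 mM HEPES pH 7.5, 150 mM NaCl, 1 mM TCEP, 0.005% Tween 20, 2% DMSO; 60 s contact, 120 s dissociation.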

Sequence of CRBN truncate (318-426) (Q96SW2 318-426): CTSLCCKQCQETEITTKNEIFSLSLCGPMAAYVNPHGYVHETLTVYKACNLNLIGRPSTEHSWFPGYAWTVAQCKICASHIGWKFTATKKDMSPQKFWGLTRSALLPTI

SMILES	Kd [µM]
CC(C)(C)OC(=O)NCCCCCCCCn1ccc2c(N3CCC4(CCCC(=O)NC4=O)C3)ncnc21 (stereo not drawn) [Example 186, tert-Butyl N-[8-[4-(6,8-dioxo-2,7-diazaspiro[4.6]undecan-2-yl)pyrrolo[2,3-d]pyrimidin-7-yl]octyl]carbamate]	50 to 100
COc1ccc2nc(N3CCC4(CCCC(=O)NC4=O)C3)sc2c1 (stereo not drawn) [Example 187, 2-(6-Methoxy-1,3-benzothiazol-2-yl)-2,7-diazaspiro[4.6]undecane-6,8-dione]	50 to 100
COc1ccc2sc(N3CCC4(CCCC(=O)NC4=O)C3)nc2c1 (stereo not drawn) [Example 188, 2-(5-Methoxy-1,3-benzothiazol-2-yl)-2,7-diazaspiro[4.6]undecane-6,8-dione]	≥ 100
COc1cccc2sc(N3CCC4(CCCC(=O)NC4=O)C3)nc12 (stereo not drawn) [Example 189, 2-(4-Methoxy-1,3-benzothiazol-2-yl)-2,7-diazaspiro[4.6]undecane-6,8-dione]	≥ 100
CC(C)(C)OC(=O)N1CCc2c(ncnc2N2CCC3(CCCC(=O)NC3=O)C2)C1 (stereo not drawn) [Example 190, tert-Butyl 4-(6,8-dioxo-2,7-diazaspiro[4.6]undecan-2-yl)-6,8-dihydro-5H-pyrido[3,4-d]pyrimidine-7-carboxylate]	≥ 100
N#Cc1ccccc1N1CCC2(CCCC(=O)NC2=O)C1 (stereo not drawn) [Example 191]	≥ 100
CC(C)(C)OC(=O)CCCCCCCn1c(=O)n(C2CCCC(=O)NC2=O)c2ccccc21 (stereo not drawn) [Example 195, tert-Butyl 8-[3-(2,7-dioxoazepan-3-yl)-2-oxobenzimidazol-1-yl]octanoate]	< 50
CC(C)(C)OC(=O)NCCCn1c(=O)n(C2CCCC(=O)NC2=O)c2ccccc21 (stereo not drawn) [Example 196, tert-Butyl N-[3-[3-(2,7-dioxoazepan-3-yl)-2-oxobenzimidazol-1-yl]propyl]carbamate]	< 50
CC(C)(C)OC(=O)NCCn1c(=O)n(C2CCCC(=O)NC2=O)c2ccccc21 (stereo not drawn) [Example 197, tert-Butyl N-[2-[3-(2,7-dioxoazepan-3-yl)-2-oxobenzimidazol-1-yl]ethyl]carbamate]	≥ 100
CC(C)(C)OC(=O)NCCCCCCCn1c(=O)n(C2CCCC(=O)NC2=O)c2ccccc21 (stereo not drawn) [Example 198, tert-Butyl N-[7-[3-(2,7-dioxoazepan-3-yl)-2-oxobenzimidazol-1-yl]heptyl] carbamate]	< 50
CC(C)(C)OC(=O)NCCOCCOCCn1c(=O)n(C2CCCC(=O)NC2=O)c2ccccc21 (stereo not drawn) [Example 199, tert-Butyl N-[2-[2-[2-[3-(2,7-dioxoazepan-3-yl)-2-oxobenzimidazol-1-yl]ethoxy]ethoxy]ethyl]carbamate]	≥ 100
CC(C)(C)OC(=O)NCCCCCCCn1c(=O)n(C2CCCC(=O)NC2=O)c2ncccc21 (stereo not drawn) [Example 201-2]	≥ 100
Cc1ccc(NC(=O)NCCCn2c(=O)n(C3CCCC(=O)NC3=O)c3ccccc32)cc1Cl (stereo not drawn) [Example 202, 1-(3-Chloro-4-methylphenyl)-3-[3-[3-(2,7-dioxoazepan-3-yl)-2-oxobenzimidazol-1-yl]propyl]urea]	≥ 100
Cn1c(=O)n(C2CCCC(=O)NC2=O)c2cccc(C#CCCCCCC(=O)OC(C)(C)C)c21 (stereo not drawn) [Example 206, tert-Butyl 8-[1-(2,7-dioxoazepan-3-yl)-3-methyl-2-oxobenzimidazol-4-yl]oct-7-ynoate]	< 50
O=C(O)CCCCCCCc1nn(C2CCCC(=O)NC2=O)c2ccccc12 (stereo not drawn) [Example 209, 8-[1-(2,7-Dioxoazepan-3-yl)indazol-3-yl]octanoic acid]	≥ 100
Cn1c(=O)n(C2CCCC(=O)NC2=O)c2cccc(I)c21 (stereo not drawn) [Example 210, 3-(4-Iodo-3-methyl-2-oxobenzimidazol-1-yl) azepane-2,7-dione]	50 to 100
Cn1c(=O)n(C2CCCC(=O)NC2=O)c2cccc(CCCCC(=O)OC(C)(C)C)c21 (stereo not drawn) [Example 214, tert-Butyl 5-[1-(2,7-dioxoazepan-3-yl)-3-methyl-2-oxobenzimidazol-4-yl]pentanoate]	50 to 100
Cn1c(=O)n(C2CCCC(=O)NC2=O)c2ccc(C3CCN(C(=O)OC(C)(C)C)CC3)cc21 (stereo not drawn) [Example 218, tert-Butyl 4-[1-(2,7-dioxoazepan-3-yl)-3-methyl-2-oxobenzimidazol-5-yl]piperidine-1-carboxylate]	50 to 100
Cn1c(=O)n(C2CCCC(=O)NC2=O)c2ccc(C3CCN(CC(=O)OC(C)(C)C)CC3)cc21 (stereo not drawn) [Example 219, tert-Butyl 2-[4-[1-(2,7-dioxoazepan-3-yl)-3-methyl-2-oxobenzimidazol-5-yl]piperidin-1-yl]acetate]	< 50
Cn1c(=O)n(C2CCCC(=O)NC2=O)c2cccc(C3=CCN(C(=O)OC(C)(C)C)CC3)c21 (stereo not drawn) [Example 220, tert-Butyl 4-[1-(2,7-dioxoazepan-3-yl)-3-methyl-2-oxobenzimidazol-4-yl]-3,6-dihydro-2H-pyridine-1-carboxylate]	50 to 100

SMILES	Kd [µM]
Cn1c(=O)n(C2CCCC(=O)NC2=O)c2cccc(-c3ccncc3)c21 (stereo not drawn) [Example 221, 3-[3-Methyl-2-oxo-4-(4-pyridyl)benzimidazol-1-yl]azepane-2,7-dione]	50 to 100
Cn1c(=O)n(C2CCCC(=O)NC2=O)c2cccc(C3=CCN(CC(=O)OC(C)(C)C)CC3)c21 (stereo not drawn) [Example 222, tert-Butyl 2-[4-[1-(2,7-dioxoazepan-3-yl)-3-methyl-2-oxobenzimidazol-4-yl]-3,6-dihydro-2H-pyridin-1-yl]acetate]	50 to 100
CC(C)(C)OC(=O)c1ccc(N2CC[C@]3(CCCC(=O)NC3=O)CC2=O)cc1 [Example 223, tert-Butyl 4-(4,7,9-trioxo-3,8-diazaspiro [5.6]dodecan-3-yl) benzoate]	< 50
CC(C)(C)OC(=O)c1ccc(N2CC[C@@]3(CCCC(=O)NC3=O)CC2=O)cc1 [Example 224, tert-Butyl 4-(4,7,9-trioxo-3,8-diazaspiro [5.6]dodecan-3-yl) benzoate]	≥ 100
O=C1CCCC2(CCN(c3ccc([N+](=O)[O-])cc3)C(=O)C2)C(=O)N1 (stereo not drawn) [Example 225, 3-(4-Nitrophenyl)-3,8-diazaspiro [5.6]dodecane-4,7,9-trione]	≥ 100
CC(C)(C)OC(=O)CCCCCN1CC2(CC(=O)N(C3CCC(=O)NC3=O)C2=O)C1 (stereo not drawn) [Example 229, tert-Butyl 6-[6-(2,6-dioxopiperidin-3-yl)-5,7-dioxo-2,6-diazaspiro[3.4]octan-2-yl]hexanoate]	≥ 100
Nc1nccc(N2CC3(CC(=O)N(C4CCC(=O)NC4=O)C3=O)C2)n1 (stereo not drawn) [Example 230, 2-(2-Aminopyrimidin-4-yl)-6-(2,6-dioxopiperidin-3-yl)-2,6-diazaspiro[3.4]octane-5,7-dione]	≥ 100
CC(C)(C)OC(=O)c1ccc2nc(N3CC4(CC(=O)N(C5CCC(=O)NC5=O)C4=O)C3)sc2c1 (stereo not drawn) [Example 231, tert-Butyl 2-[6-(2,6-dioxopiperidin-3-yl)-5,7-dioxo-2,6-diazaspiro[3.4]octan-2-yl]-1,3-benzothiazole-6-carboxylate]	< 50
O=C1CCC(N2C(=O)CC3(CN(c4ccc([N+](=O)[O-])cc4)C3)C2=O)C(=O)N1 (stereo not drawn) [Example 232, 6-(2,6-Dioxopiperidin-3-yl)-2-(4-nitrophenyl)-2,6-diazaspiro[3.4]octane-5,7-dione]	50 to 100
CC(C)(C)OC(=O)NCCCNc1nccc(N2CC3(CC(=O)N(C4CCC(=O)NC4=O)C3=O)C2)n1 (stereo not drawn) [Example 233]	≥ 100
CC(C)(C)OC(=O)COc1cnc(N2CC3(CC(=O)N(C4CCC(=O)NC4=O)C3=O)C2)nc1 (stereo not drawn) [Example 234]	≥ 100
Cn1ccc2c(N3CC4(CC(=O)N(C5CCC(=O)NC5=O)C4=O)C3)ncnc21 (stereo not drawn) [Example 235, 6-(2,6-Dioxopiperidin-3-yl)-2-(7-methylpyrrolo[2,3-d]pyrimidin-4-yl)-2,6-diazaspiro[3.4]octane-5,7-dione]	≥ 100
CC(C)(C)OC(=O)NCCCCCCCCn1ccc2c(N3CC4(CC(=O)N(C5CCC(=O)NC5=O)C4=O)C3)ncnc21 (stereo not drawn) [Example 236, tert-Butyl N-[8-[4-[6-(2,6-dioxopiperidin-3-yl)-5,7-dioxo-2,6-diazaspiro[3.4]octan-2-yl]pyrrolo[2,3-d]pyrimidin-7-yl]octyl]carbamate]	< 50
CC(C)(C)OC(=O)N1CCC(Oc2ccc(CN3CC4(CC(=O)N(C5CCC(=O)NC5=O)C4=O)C3)cc2)CC1 (stereo not drawn) [Example 237, tert-Butyl 4-[4-[[6-(2,6-dioxopiperidin-3-yl)-5,7-dioxo-2,6-diazaspiro[3.4]octan-2-yl]methyl]phenoxy]piperidine-1-carboxylate]	≥ 100
COc1ccc2nc(N3CC4(CC(=O)N(C5CCC(=O)NC5=O)C4=O)C3)sc2c1 (stereo not drawn) [Example 238, 6-(2,6-Dioxopiperidin-3-yl)-2-(6-methoxy-1,3-benzothiazol-2-yl)-2,6-diazaspiro[3.4]octane-5,7-dione]	< 50
COc1ccc2sc(N3CC4(CC(=O)N(C5CCC(=O)NC5=O)C4=O)C3)nc2c1 (stereo not drawn) [Example 239, 6-(2,6-Dioxopiperidin-3-yl)-2-(5-methoxy-1,3-benzothiazol-2-yl)-2,6-diazaspiro[3.4]octane-5,7-dione]	< 50
COc1cccc2sc(N3CC4(CC(=O)N(C5CCC(=O)NC5=O)C4=O)C3)nc12 (stereo not drawn) [Example 240, 6-(2,6-Dioxopiperidin-3-yl)-2-(4-methoxy-1,3-benzothiazol-2-yl)-2,6-diazaspiro[3.4]octane-5,7-dione]	≥ 100
CC(C)(C)OC(=O)NCCCCCOc1ccc2nc(N3CC4(CC(=O)N(C5CCC(=O)NC5=O)C4=O)C3)sc2c1 (stereo not drawn) [Example 241, tert-Butyl N-[5-[[2-[6-(2,6-dioxopiperidin-3-yl)-5,7-dioxo-2,6-diazaspiro[3.4]octan-2-yl]-1,3-benzothiazol-6-yl]oxy]pentyl]carbamate]	≥ 100
CC(C)(C)OC(=O)N1CCc2c(ncnc2N2CC3(CC(=O)N(C4CCC(=O)NC4=O)C3=O)C2)C1 (stereo not drawn) [Example 242, tert-Butyl 4-[6-(2,6-dioxo-3-piperidyl)-5,7-dioxo-2,6-diazaspiro[3.4]octan-2-yl]-6,8-dihydro-5H-pyrido[3,4-d]pyrimidine-7-carboxylate]	≥ 100

— patent publication US20250388593A1 (MITSUBISHI TANABE PHARMA CORPORATION, priority 2023, published 2025)
